# Assay results taken from patent publication US7964191B2, “Compositions and methods for the treatment of ophthalmic disease” (Allergan, Inc., priority 2006, dated 2011).
# Tested on: diabetic retinopathy
# Assay: Treatment of a patient with proliferative (left eye) and non-proliferative (right eye) diabetic retinopathy
# Type: in vivo, human
# Settings: Example 10
# Protocol: A person complains of vision loss in the left eye. The patient reports an onset of Type II diabetes, and has been under treatment with metformin hydrochloride for 10 years.
# The patient is given an intravitreal injection comprising 150 μl of a solution of hyaluronic acid in which biodegradable PLGA microspheres (mean particle diameter of about 40 μm; lactide to glycolide ratio 75:25) are suspended. See U.S. patent application Ser. No. 11/368,845, filed Mar. 6, 2006, incorporated by reference herein in its entirety. Approximate weight of microspheres per dose was 20 mg. In addition to the PLGA polymer, the microspheres comprise approximately 5% by weight of an SDF-1α derivative that comprises a disulfide-linked dimer comprising two identical peptides, with each peptide comprising amino acids 1-9 of SDF-1 (these positions correspond to amino acids 22-47 of SEQ ID NO: 4, 5, and 6) with glycine substituted for proline in each position 2 (corresponding to position 23 of SEQ ID NO: 4, 5, and 6).
# The patient's visual acuity (and retinal condition under dilation) are monitored every two weeks for 8 weeks.
# The patient of Example 9 is treated by subconjunctival injection in each eye (100 μl volume in hyaluronic acid solution) of a single fibrous monolithic PLGA intraocular implant (approximately 120 μg; diameter approximately 3 mm) comprising 50% by weight of a CXCR4-inhibitory compound: N-[(S)-1-(1-naphthyl)ethyl]-5-(2-methylbenzyl)amino-2-(S)-[4-[N-(imidazole-2-ylmethyl)aminomethyl]benzoyl]aminopentanoylamide (see Yamzaki et al., U.S. Publication No. 2004/0254221.
# After 8 weeks visual acuity is tested, and has improved by 2 lines in each eye.
# The patient of Example 9 is administered an intravitreal injection in each eye comprising 150 μl of a solution of hyaluronic acid in which biodegradable PLGA microspheres (mean particle diameter of about 40 μm; lactide to glycolide ratio 75:25) are suspended. Approximate weight of microspheres per dose was 20 mg. […]
compound,measurement,setting,value
Cc1ccccc1CNCCC[C@H](NC(=O)c1ccc(CNCc2ncc[nH]2)cc1)C(=O)N[C@@H](C)c1cccc2ccccc12 [N-[(S)-1-(1-naphthyl)ethyl]-5-(2-methylbenzyl)amino-2-(S)-[4-[N-(imidazole-2-ylmethyl)aminomethyl]benzoyl]aminopentanoylamide],fluorescein angiography: leakage of blood into the retina,after 6 weeks,does not reveal any leakage of blood into the retina
same,"improvement in visual acuity, each eye",after 8 weeks,2 lines
same,macular edema,"subconjunctival PLGA implant, 50% by weight compound, each eye, after 6 weeks",barely observable
